Data reported in US9950072B2, “Controlled release formulations for the delivery of HIF-1 inhibitors” (The Johns Hopkins University, priority 2012, dated 2018).
“Also recorded” adds a separate entry of the source.

Columns and labels:
[1] = system: photoreceptor cells (ONL) of C57BL/6 mice; test: Outer nuclear layer (ONL) thickness after intraocular injection; format: in vivo; conditions: 0.25 μg intraocular; one week
Method: ONL thickness was measured. […] Mice were euthanized, a mark was placed at 12:00 at the corneal limbus, and eyes were removed and embedded in optimal cutting temperature compound. Ten micrometer frozen sections were cut parallel to the 12:00 or 9:00 meridian through the optic nerve and fixed in 4% paraformaldehyde. The sections were stained with hematoxylin and eosin, examined with an Axioskop microscope (Zeiss, Thornwood, N.Y.), and images were digitized using a three charge-coupled device (CCD) color video camera (IK-TU40A; Toshiba, Tokyo, Japan) and a frame grabber. Image-Pro Plus software (Media Cybernetics, Silver Spring, Md.) was used to outline the ONL.

[2] = system: HIF-1 transcriptional activity and ocular NV; conditions: intraocular injections of 0.01-0.25 μg; cited from earlier work
[3] = system: retinal function in C57BL/6 mice; test: Electroretinograms (ERGs) after intraocular injection
Method: For scotopic recordings, mice were dark adapted overnight, and for photopic recordings, mice were adapted for 10 min to background white light at an intensity of 30 cd/m^2. The mice were anesthetized with an intraperitoneal injection of ketamine hydrochloride (100 mg/kg body weight) and xylazine (5 mg/kg body weight). Pupils were dilated with Midrin P containing of 0.5% tropicamide and 0.5% phenylephrine, hydrochloride (Santen Pharmaceutical Co., Osaka, Japan). The mice were placed on a pad heated to 39° C. and platinum loop electrodes were placed on each cornea after application of Gonioscopic prism solution (Alcon Labs, Fort Worth, Tex.). A reference electrode was placed subcutaneously in the anterior scalp between the eyes and a ground electrode was inserted into the tail. The head of the mouse was held in a standardized position in a ganzfeld bowl illuminator that ensured equal illumination of the eyes. Recordings for both eyes were made simultaneously with electrical impedance balanced. Scotopic ERGs were recorded at 11 intensity levels of white light ranging from −3.00 to 1.40 log cd-s/m2. Six measurements were averaged for each flash intensity. Photopic ERGs were recorded at three intensity levels of white light ranging from 0.60 to 1.40 log cd-s/m2 with a 30 cd/m2 background. Five measurements were averaged for each flash intensity.

[4] = system: choroidal NV in C57BL/6 mice; test: Laser-induced choroidal NV (rupture of Bruch's membrane) mouse model; format: in vivo; conditions: 14 days, vs fellow eyes injected with vehicle
Method: Pathogen-free C57BL/6 mice (Charles River, Wilmington, Mass.) were treated in accordance with the Association for Research in Vision and Ophthalmology Statement for the Use of Animals in Ophthalmic and Vision Research and the guidelines of the Johns Hopkins University Animal Care and Use Committee.
Choroidal NV was induced by laser photocoagulation-induced rupture of Bruch's membrane as previously described (Tobe, T. et al., Am. J. Pathol. 135(5): 1641-1646 (1998)). […] Laser photocoagulation (75 μm spot size, 0.1 sec duration, 120 mW) was performed in the 9, 12, and 3 o'clock positions of the posterior pole of each eye with the slit lamp delivery system of an OcuLight GL diode laser (Iridex, Mountain View, Calif.) and a handheld cover slip as a contact lens to view the retina. Production of a bubble at the time of laser, which indicates rupture of Bruch's membrane, is an important factor in obtaining CNV; therefore, only burns in which a bubble was produced were included in the study.
Immediately after laser-induced rupture of Bruch's membrane, mice were randomized to various treatment groups for intraocular injections. Intravitreal injections were done under a dissecting microscope with a Harvard Pump Microinjection System and pulled glass micropipettes.
At 1, 4, 7, and 14 days after injection, fundus photographs were taken with a Micron III® camera (Phoenix Research Laboratories Inc., Pleasanton, Calif.). After 14 days, the mice were perfused with 1 ml of PBS containing 25 mg/ml of fluorescein-labeled dextran (2×10^6 Daltons average molecular weight; Sigma-Aldrich, St. Louis, Mo.) and choroidal flat mounts were examined by fluorescence microscopy. Images were captured with a Nikon Digital Still Camera DXM1200 (Nikon Instruments Inc., New York, N.Y.). Image analysis software (Image-Pro® Plus; Media Cybernetics, Silver Spring, Md.) was used to measure the total area of CNV at each rupture site with the investigator masked with respect to treatment group.

[5] = system: retinal NV in C57BL/6 mice with oxygen-induced ischemic retinopathy; test: Oxygen-induced ischemic retinopathy, area of retinal NV; format: in vivo; conditions: measured five days later (P17)
Method: At P17, the area of retinal NV on the surface of the retina was measured. […] Retinas were dissected, washed, and incubated with goat-anti rat polyclonal antibody conjugated with Alexa 488 (Invitrogen, Carlsbad, Calif.) at 1:500 dilution at room temperature for 45 minutes and flat mounted. An observer masked with respect to treatment group measured the area of NV per retina by image analysis.

[6] = 0.1 μg intraocular injection after laser
[7] = 1.0 μg intraocular injection after laser
[8] = 10 μg intraocular injection after laser
[9] = 1 μg intraocular, fourteen days

Row | SMILES | outer nuclear layer thickness [1] | effect on HIF-1 transcriptional activity and ocular NV [2] | mean scotopic and photopic b-wave amplitudes ([3]; 0.05 μg intraocular) | ERG amplitudes (scotopic a-wave, scotopic b-wave, photopic b-wave) ([3]; 0.25 μg intraocular, one week) | area of CNV [4, 6] | area of CNV [4, 7] | area of CNV [4, 8] | area of RNV ([5]; 0.01 μg intraocular at P12) | area of RNV ([5]; 0.1 μg intraocular at P12) | area of RNV ([5]; 1.0 μg intraocular at P12) | mean scotopic and photopic b-wave amplitudes [3, 9]
1 | C[C@H]1O[C@@H](O[C@H]2[C@@H](O)C[C@H](O[C@H]3[C@@H](O)C[C@H](O[C@H]4CC[C@@]5(C)[C@H](CC[C@@H]6[C@@H]5C[C@@H](O)[C@]5(C)[C@@H](C7=CC(=O)OC7)CC[C@]65O)C4)O[C@@H]3C)O[C@@H]2C)C[C@H](O)[C@@H]1O [digoxin] | reduction in outer nuclear layer thickness at 3 of 6 measurement locations | suppress HIF-1 transcriptional activity and ocular NV | significant reduction in mean scotopic and photopic b-wave amplitudes | significant reduction in mean scotopic a-wave amplitude, mean scotopic b-wave amplitude, and mean photopic b-wave amplitude |  |  |  |  |  |  | 
2 | COc1cccc2c1C(=O)c1c(O)c3c(c(O)c1C2=O)C[C@@](O)(C(C)=O)C[C@@H]3O[C@H]1C[C@H](N)[C@H](O)[C@H](C)O1 [DNR, daunorubicin] |  |  |  |  | had no significant effect; also recorded: did not show a statistically significant reduction in the area of CNV | had no significant effect; also recorded: did not show a statistically significant reduction in the area of CNV | suppressed choroidal NV; also recorded: statistically significant reduction in the area of CNV | had no significant effect; also recorded: did not show a statistically significant reduction in the area of RNV | caused a small reduction; also recorded: statistically significant reduction in the area of RNV | markedly reduced the area of retinal NV; also recorded: statistically significant reduction in the area of RNV | significant reduction in mean scotopic and photopic b-wave amplitudes
3 | COc1cccc2c1C(=O)c1c(O)c3c(c(O)c1C2=O)C[C@@](O)(C(=O)CO)C[C@@H]3O[C@H]1C[C@H](N)[C@H](O)[C@H](C)O1 [DXR, doxorubicin] |  |  |  |  | did not have a significant effect; also recorded: did not show a statistically significant reduction in the area of CNV | did not have a significant effect; also recorded: did not show a statistically significant reduction in the area of CNV | suppressed choroidal NV; also recorded: statistically significant reduction in the area of CNV | but not 0.1 or 0.01 μg, significantly reduced; also recorded: did not show a statistically significant reduction in the area of RNV | but not 0.1 or 0.01 μg, significantly reduced; also recorded: did not show a statistically significant reduction in the area of RNV | significantly reduced the area of retinal NV; also recorded: statistically significant reduction in the area of RNV | significant reduction in mean scotopic and photopic b-wave amplitudes
